Assay results taken from US20240182513A1, “SEPARATION OF METAL IONS FROM A SAMPLE USING GLYCOLIPIDS” (ARIZONA BOARD OF REGENTS ON BEHALF OF THE UNIVERSITY OF …, priority 2021, published 2024).

Columns and labels:
[1] = Example 2.2 glycolipid facilitated chemical precipitation: lead; conditions: for Pb^2+ maximum removal: precipitation without further treatment, maximum over molar ratios
Procedure: (§1) Nine different structural variants were selected to examine the effect of the headgroup and number and length of the hydrophobic tail(s) on glycolipids as a chemical precipitant (Table 6). These solutions were made in advance and stored at 4° C. for up to one month and brought to room temperature (˜25° C.) before each experiment.
(§2) Each metal (Pb^2+, La^3+, and Mg^2+) was evaluated separately with each of the nine glycolipids. […] The reactions were mixed in the order of nanopure water (≥18 MΩ-cm), glycolipid solution, then metal solution. The metal and glycolipid solutions were continuously stirred as they were aliquoted into the reaction tubes. All experiments were performed in triplicate.
(§3) The reaction tubes were rotated overnight (16 to 24 h) and then three samples were collected from each tube to measure metal removal from solution: (1) no further treatment; (2) an additional filtration step; and (3) an additional centrifugation step. Briefly, for the glycolipid adsorption treatment samples all tubes were vortexed for approximately 5 sec immediately before sampling to ensure that non-adsorbed glycolipid-metal complexes were mixed into the solution column. After mixing, 0.1 ml of the reaction solution was aliquoted into a dilution tube of 2% trace metal grade nitric acid for analysis. This sample measures the loss of metal due to the formation of hydrophobic scums or adsorbed complexes not attributable to the subsequent filtration or centrifugation treatments.
Samples for the filtration treatment were vortexed for 5 sec, then a 0.6 ml aliquot was collected with a 1 ml syringe. A GHP acrodisc disk filter (hydrophilic polypropylene membrane, 0.45 µm pore size, 25 mm disc diameter) from Pall Life Sciences (Port Washington, New York) or PTFE disk filters (hydrophobic polytetrafluoroethylene membrane, 0.45 μm pore size, 25 mm disc diameter) from Fisher Scientific (Waltham, MA) was then placed onto the end of the syringe and approximately 0.1 ml of filtrate was collected into a dilution tube for analysis. The centrifuge sample was collected by centrifuging the remaining reaction solution at 10,000 RCF for 15 min. Approximately 0.1 ml of the supernatant was aliquoted into a dilution tube for analysis. Following collection, the metal content in all samples was analyzed at the Arizona Laboratory for Emerging Contaminants (ALEC) at the University of Arizona using inductively coupled plasma mass spectrometry.
(§4) R was determined by comparing the solution metal concentration of the treatment sample (Cnt for the glycolipid with no further treatment sample, Cf for the glycolipid and filtration sample, and Cc for the glycolipid and centrifugation sample) to the solution metal concentration of a glycolipid-free control (Ci) that underwent the same handling and processing steps. The equations for these calculations are shown below: […]

[2] = Example 2.2 glycolipid facilitated chemical precipitation: magnesium
Procedure: as §1, with “Surfactants: Each of the solutions were made by dissolving a single glycolipid (GlycoSurf Inc., Salt Lake City, >95% purity) in nanopure water (≥18 MΩ-cm) then adjusting the pH to 6.90±0.05 with HNO3 and NaOH. Nine” for “Nine”
Metals: Three metals were tested for binding with the glycolipids: lead as […] (Fisher Scientific, Waltham, MA, 99% purity), lanthanum as La(NO3)3 6(H2O) (Sigma-Aldrich, St. Louis, MO, 99.99% purity), and magnesium as Mg(NO3)2 6(H2O) (Sigma-Aldrich, St. Louis, MO, 99% purity. Metal solutions (5 mM) were made using nanopure water (≥18 MΩ-cm) and were not pH balanced.
Each metal (Pb^2+, La^3+, and Mg^2+) was evaluated separately with each of the nine glycolipids. […]
(§5) Samples for the filtration treatment were vortexed for 5 sec, then a 0.6 ml aliquot was collected with a 1 ml syringe. […] Following collection, the metal content in all samples was analyzed at the Arizona Laboratory for Emerging Contaminants (ALEC) at the University of Arizona using inductively coupled plasma mass spectrometry.
as §4, with “Calculations: The efficiency of metal removal (R) was determined for each of the three treatments: Ra for the active mixing/adsorption treatment, Rf for the glycolipid and filtration treatment, and Rc for the glycolipid and centrifugation treatment. R” for “R”, “steps.” for “steps. The equations for these calculations are shown below:”

[3] = Example 2.2 glycolipid facilitated chemical precipitation: lanthanum
Procedure: as §1, §2
as §3, with “This sample measures the loss of metal due to the formation of hydrophobic scums or adsorbed complexes not attributable to the subsequent filtration or centrifugation treatments.” left out
as §5
as §4, with “steps.” for “steps. The equations for these calculations are shown below:”

[4] = Ion flotation of uranium from Monument Valley groundwater with rhamnolipid collectors; conditions: pH 6.5
Excerpt: Groundwater Collection and Analysis: The Monument Valley site is in Cane Valley, AZ, which is in northeastern Arizona. Groundwater was collected from monitoring well 662, which is down gradient of the source zone within the boundaries of the uranium groundwater plume. Samples were collected using dedicated bladder pumps and a QED Micropurge Controller. Groundwater was collected into a 50 L LDPE carboy (Thermo Scientific Nalgene) after the groundwater's pH and dissolved oxygen levels from the pump stabilized. The solution was stored as received, on the lab bench at ambient temperature until use.
For cation and anion analysis, groundwater was filtered ([…]) then diluted with 2% trace metals grade nitric acid (Fisher Scientific, Waltham, MA) in metal-free polypropylene 15 mL centrifuge tubes (VWR, Radnor, PA). Cations were analyzed using an Elan DRC-II inductively coupled plasma mass spectrometer (ICP-MS). Anions (F^−1, Cl^−1, Br^−1, NO2^−1, NO3^−1, […], and SO4^−2) were analyzed by using a Thermo Scientific Dionex ICS-6000 high-performance ion chromatography system. Data generated in this geochemical analysis were used to model uranium speciation using Visual MINTEQ 3.1. Only major solution constituents—those greater than 10 μg L^−1 for metals or 5 μmol L^−1 for anions—were included in the experiment, and carbonates were excluded because they are stripped from solution when nitrogen is sparged in the flotation process.
Chemicals: Both biosynthetic and synthetic monorhamnolipid collectors were tested for flotation efficiency. Biosynthetic monorhamnolipid tail lengths ‘m’ and ‘n’ range from 4 to 12 due to natural congener variation. Synthetic monorhamnolipids (Rha-C10-C10, Rha-C12-C12, or Rha-C14-C14) were synthesized with equal length tails where ‘m’=‘n’=6-14. The production and purification of biosynthetic monorhamnolipids (bio-mRL) from Pseudomonas aeruginosa ATCC 9027 has been previously described by Hogan et al., J. Hazard. Mater. 2017, 340, pp. 171-178. This organism exclusively produces monorhamnolipids—rhamnolipids with a single rhamnose sugar in the hydrophilic moiety of the molecule—as a congener mixture with varying hydrophobic tail lengths, in which the rhamnosyl-β-hydroxydecanoyl-β-hydroxydecanoate (C10-C10) dominates at 75-85 wt %. A molecular weight of 504 g mol^−1 (based on the C10-C10 structure) was used to estimate the bio-mRL concentration. Synthetic monorhamnolipids with decyl (Rha-C10-C10), dodecyl (Rha-C12-C12), and tetradecyl (Rha-C14-C14) hydrophobic moieties were prepared for comparative experiment. The molecular weights of the synthetic monorhamnolipids are 504.7, 560.8, and 616.9, respectively. All solutions were made using nanopure water (≥18 MΩ-cm). pH was adjusted with HNO3 and NaOH. […]

[5] = precipitation without further treatment, 5:1 ratio
[6] = precipitation followed by centrifugation, molar ratio not stated / over ratios
[7] = precipitation without further treatment, molar ratio not stated

CCCCCCCC(CC(=O)O)OC1O[C@H](CO)[C@H](O)[C@H](O)[C@H]1O (some centres unmarked) [Gal-C10]
Pb^2+ removal ([1]; precipitation followed by filtration, 2:1 molar ratio): 95.5% | Pb^2+ maximum removal [1]: 38%

CCCCCCCCCCCC(CC(=O)O)OC1O[C@H](CO)[C@H](O)[C@H](O)[C@H]1O (some centres unmarked) [Gal-C14]
Mg^2+ removal [2, 5]: 11.6% | Pb^2+ maximum removal [1]: 1.5% | La^3+ removal [3, 5]: 57.9%

CCCCCCCC(CC(=O)O)OC1OC[C@@H](O)[C@H](O)[C@H]1O (some centres unmarked) [Xyl-C10]
Mg^2+ removal [2, 6]: ≤ 30% | Pb^2+ removal [1, 6]: ≤ 30% | Pb^2+ maximum removal [1]: approximately 30% | La^3+ removal [3, 6]: ≤ 30%

CCCCCCCCCCCC(CC(=O)O)OC(=O)CC(CCCCCCCCCCC)OC1OC[C@@H](O)[C@H](O)[C@H]1O (some centres unmarked) [Xyl-C14-C14]
Mg^2+ removal [2, 7]: 17.1% | Pb^2+ maximum removal [1]: approximately 30%

CCCCCCCCCCCC(CC(=O)O)OC1OC[C@@H](O)[C@H](O)[C@H]1O (some centres unmarked) [Xyl-C14]
Pb^2+ maximum removal [1]: < 7% | La^3+ removal [3, 7]: 42.6%

CCCCCCCC(CC(=O)O)OC(=O)CC(CCCCCCC)O[C@@H]1OC(C)[C@H](O)C(O)C1O[C@@H]1OC(C)[C@H](O)C(O)C1O (some centres unmarked) [dirhamnolipid]
uranium removal percentage [4]: about 75%
